# Experimental data published in patent US20060009425A1, “Oral formulations of paricalcitol” (priority 2004, published 2006).
# Assays:
# [1] = Combined Phase 3 studies, safety (Examples 10-12); type: in vivo, human
# Experimental: As discussed previously, Vitamin D deficiency is common in early stage CKD and is a major factor in the development of 2° HPT. However, few nephrologists prescribe calcitriol due to concerns of its calcemic, phosphatemic and calciuric effects and potential adverse effect on kidney function. In this example, a study was conducted that evaluated the safety of paricalcitol capsule in CKD stage 3-4 subjects with 2° HPT in 3 double-blind, placebo-controlled multicenter studies. A total of 220 subjects with iPTH ≧150 pg/mL, serum Ca 8-10 mg/dL and P≦5.2 mg/dL were randomized 1:1 and treated with paricalcitol capsule (N=107) or placebo (N=113) three times per week or daily for 24 weeks. Initial doses were based on iPTH levels at baseline (iPTH <500 pg/mL: 2 mcg TIW or 1 mcg QD; iPTH ≧500 pg/mL: 4 mcg TIW or 2 mcg QD). Subsequent dose adjustments (TIW: 2 mcg, QD: 1 mcg) were based on biweekly Ca, P and iPTH results, dose increases occurred every 4 weeks.
# In this example, three double-blind, placebo-controlled, multicenter studies were conducted to evaluate the safety and efficacy of paricalcitol capsule in CKD stage 3-4 subjects. Major inclusion included eGFR (MDRD formula) 15-60 mL/min/1.73 m^2, iPTH ≧150 pg/mL. A total of 220 subjects across the 3 studies were randomized and received paricalcitol capsule or placebo three times weekly (TIW, N=145) or daily (QD, N=75) for 24 weeks. Mean baseline eGFR was 23.90 mL/min/1.73 m^2 in the paricalcitol group and 23.44 mL/min/1.73 m^2 in the placebo group. The initial dose was 2 mcg (TIW) or 1 mcg (QD) for baseline iPTH ≦500 pg/mL and 4 mcg (TIW) or 2 mcg (QD) for baseline iPTH >500 pg/mL. Doses were titrated based on serum Ca, P and iPTH results that were measured every 2 weeks, dose increases occurred every 4 weeks.
# In this example, paricalcitol capsules were evaluated in 3 double-blind, placebo-controlled multicenter studies in CKD stage 3-4 subjects with 2° HPT; 2 of these studies were conducted with TIW dosing and 1 was done with QD dosing. Subjects with eGFR (MDRD formula) 15-60 ml/min/1.73 m^2, iPTH ≧150 pg/mL, serum Ca 8.0-10.0 mg/dL and PO4≦5.2 mg/dL were randomized 1:1 and treated with paricalcitol capsule or placebo for 24 weeks. A total of 145 subjects used TIW regimen (paricalcitol: 72; placebo: 73) and 75 subjects (paricalcitol: 35; placebo: 40) used QD regimen. After the initial doses, doses were titrated based on serum Ca, P and iPTH results that were measured every 2 weeks; dose increases occurred once every 4 weeks and decreases every 2 weeks. Dosing administrations are shown below in Table 18.
# [2] = system: serum and urine pharmacodynamic markers; assay: Serum and urine pharmacodynamic markers, moderate to severe renal impairment (Example 4)
# Experimental: Blood samples for paricalcitol assay were collected by venipuncture into 7 mL evacuated EDTA-containing collection tubes within 5 minutes prior to dosing (0 hour) and at 0.5, 1, 2, 3, 4, 6, 8, 12, 24, 36, and 48 hours after dosing on Study Days 1 and 8. Sufficient blood was collected to provide approximately 2.5 mL plasma from each sample. In addition, urine was collected for 48 hours following Study Day 1 dosing. Serum and urine pharmacodynamic markers, were measured at selected time points in the study. Also, a 24 hr urine amount of urine pharmacodynamic markers were measured following paricalcitol dose on Study Days 1 and 8.
# Pharmacodynamic: Serum pharmacodynamic markers [serum calcium, calcium-phosphorus product (Ca×P), serum phosphorus, serum bone specific alkaline phosphatase (AP), serum osteocalcin, serum C-terminal telopeptide of collagen (CTx), serum tartarate resistant acid phosphatase-type 5b (TRAP-5b), intact (iPTH) and whole PTH] were measured from samples collected immediately prior to dosing on Study Days 1, 3, 5, and 8. One additional sample was collected 48 hours following the Study Day 8 dose (on the morning of Study Day 10). Urine pharmacodynamic markers [calcium, creatinine and deoxy-pyridinoline (DPD)] were measured from samples collected immediately prior to dosing on Study Days 1 and 8, and during the intervals 0 to 4, 4 to 8, 8 to 12, and 12 to 24 hours after dosing on Study Days 1 and 8. In addition, these markers were measured using the first morning void sample on Study Days 3, 5, and 10.
# Pharmacodynamic: Two-sample t-tests were performed to compare baseline pharmacodynamic marker values between the two renal impairment groups. For improving the normality of the distribution of the baseline values, natural logarithm transformations were made to all the pharmacodynamic markers except for the urine calcium and urine creatinine. The relationship between the % change from Study Day 1 to Study Day 10 and the Study Day 1 paricalcitol AUC0-∞ was investigated using linear regression. The Study Day 1 AUC0-∞ and the corresponding baseline value were independent variables. A one-sample t-test was performed for each group on the change from Study Day 1 to Study Day 8 in 24-hour amount of urine calcium and creatinine.
# [3] = 3 Phase 3 studies, TIW or daily for 24 weeks, CKD stage 3-4
# [4] = N = 106, 3 Phase 3 studies combined
# [5] = subjects who completed 24 weeks of treatment
# [6] = moderate and severe renal impairment groups, supra-pharmacologic fixed doses, 1-week study
# [7] = moderate renal impairment, Study Day 1
# [8] = moderate renal impairment, Study Day 8
# [9] = severe renal impairment, Study Day 1
# [10] = severe renal impairment, Study Day 8
smiles,measurement,setting,value
"C[C@H](/C=C/[C@H](C)C(C)(C)O)[C@H]1CC[C@H]2/C(=C/C=C3C[C@@H](O)C[C@H](O)C3)CCC[C@]12C [Paricalcitol, 19-nor-1α,3β,25-trihydroxy-9,10-secoergosta-5(Z); 7(E),22(E)-triene]",subjects who experienced hypercalcemia (2 consecutive Ca >10.5 mg/dL),"[1]; 2/106, 3 Phase 3 studies combined",2%
same,adverse event incidence: pharyngitis,[1]; 3 Phase 3 studies combined,10%
same,treatment-emergent adverse events reporting,[1]; 3 Phase 3 studies combined,82%
same,"Urine Calcium, Mean Change from Baseline (SE)",[1]; [3],2.4 (3.04) mg/24 hours
same,"Urine Calcium, Mean Final Value",[1]; [3],42.0 mg/24 hours
same,"Urine Phosphorous, Mean Change from Baseline (SE)",[1]; [3],−2.1 (39.72) mg/24 hours
same,"Urine Phosphorous, Mean Final Value",[1]; [3],670.4 mg/24 hours
same,safety and tolerability,"[1]; CKD stage 3-4 subjects, 3 Phase 3 studies",safe and well tolerated
same,"Elevated Ca × P (2 consecutive Ca × P > 55 mg^2/dL^2), subjects n (%)",[1]; [4],13 (12%)
same,"Hypercalcemia (2 consecutive Ca > 10.5 mg/dL), subjects n (%)",[1]; [4],2 (2%)
same,"Hyperphosphatemia (2 consecutive P > 5.5 mg/dL), subjects n (%)",[1]; [4],11 (10%)
same,"Elevated Ca × P (2 consecutive Ca × P > 55 mg^2/dL^2), subjects n (%)",[1]; QD regimen,5 (14%)
same,"Hypercalcemia (2 consecutive Ca > 10.5 mg/dL), subjects n (%)",[1]; QD regimen,0 (%)
same,"Hyperphosphatemia (2 consecutive P > 5.5 mg/dL), subjects n (%)",[1]; QD regimen,5 (14%)
same,"Elevated Ca × P (2 consecutive Ca × P > 55 mg^2/dL^2), subjects n (%)",[1]; TIW regimen,8 (12%)
same,"Hypercalcemia (2 consecutive Ca > 10.5 mg/dL), subjects n (%)",[1]; TIW regimen,2 (3%)
same,"Hyperphosphatemia (2 consecutive P > 5.5 mg/dL), subjects n (%)",[1]; TIW regimen,6 (9%)
same,"eGFR (MDRD formula), Mean Change from Baseline",[1]; [5],−2.5 (0.526) mL/min/1.73 m^2
same,"eGFR (MDRD formula), Mean Final Value",[1]; [5],21.4 mL/min/1.73 m^2
same,"eGFR (MDRD formula), Mean Percent Change from Baseline (SE)",[1]; [5],−10.4 (2.268)
same,PTH levels,[2]; [6],significant decrease
same,"calcium, phosphorus, Ca×P levels",[2]; [6],increases
same,"Ca/Creatinine, urine over 24 hours after dose",[2]; [7],0.045 ± 0.051
same,"Calcium, total amount excreted in urine over 24 hours after dose",[2]; [7],49.39 ± 56.85 mg
same,"Creatinine, total amount excreted in urine over 24 hours after dose",[2]; [7],1326.7 ± 566.1 mg
same,"DPD, total amount excreted in urine over 24 hours after dose",[2]; [7],52.03 ± 18.96 nmol
same,"Ca/Creatinine, urine over 24 hours after dose",[2]; [8],0.074 ± 0.078
same,"Calcium, total amount excreted in urine over 24 hours after dose",[2]; [8],79.24 ± 63.27 mg
same,"Creatinine, total amount excreted in urine over 24 hours after dose",[2]; [8],1324.4 ± 402.0 mg
same,"DPD, total amount excreted in urine over 24 hours after dose",[2]; [8],58.60 ± 16.45 nmol
same,24-hour urinary excretion of calcium,[2]; repeated dosing,does not affect
same,"Ca/Creatinine, urine over 24 hours after dose",[2]; [9],0.028 ± 0.019
same,"Calcium, total amount excreted in urine over 24 hours after dose",[2]; [9],29.18 ± 20.97 mg
same,"Creatinine, total amount excreted in urine over 24 hours after dose",[2]; [9],1088.3 ± 278.6 mg
same,"DPD, total amount excreted in urine over 24 hours after dose",[2]; [9],48.34 ± 21.04 nmol
same,"Calcium, total amount excreted in urine over 24 hours after dose",[2]; [10],50.92 ± 41.18 mg
same,"DPD, total amount excreted in urine over 24 hours after dose",[2]; [10],47.74 ± 20.47 nmol
